This is an account of results in article PMC6934184, “Selective DNA-PKcs inhibition extends the therapeutic index of localized radiotherapy and chemotherapy” (The Journal of Clinical Investigation, 2019).

The assay concerns the target T1, LATS2 (Homo sapiens, UniProt Q9NRM7).
T1 construct: purchased Thermo Fisher Scientific (Life Technologies) SelectScreen
The assay is described as follows: SelectScreen LanthaScreen. It is filed as binding. The note with it: 1 µM. Put shortly:
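SelectScreen broad panel; activity (Z'LYTE, Adapta) plus binding formats. ATP: Km app for CSF1R Z'LYTE; 10 for CAMK1 Adapta. Readout = % per kinase.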

Structures are written as SMILES.

T1 sequence (Q9NRM7 whole entry): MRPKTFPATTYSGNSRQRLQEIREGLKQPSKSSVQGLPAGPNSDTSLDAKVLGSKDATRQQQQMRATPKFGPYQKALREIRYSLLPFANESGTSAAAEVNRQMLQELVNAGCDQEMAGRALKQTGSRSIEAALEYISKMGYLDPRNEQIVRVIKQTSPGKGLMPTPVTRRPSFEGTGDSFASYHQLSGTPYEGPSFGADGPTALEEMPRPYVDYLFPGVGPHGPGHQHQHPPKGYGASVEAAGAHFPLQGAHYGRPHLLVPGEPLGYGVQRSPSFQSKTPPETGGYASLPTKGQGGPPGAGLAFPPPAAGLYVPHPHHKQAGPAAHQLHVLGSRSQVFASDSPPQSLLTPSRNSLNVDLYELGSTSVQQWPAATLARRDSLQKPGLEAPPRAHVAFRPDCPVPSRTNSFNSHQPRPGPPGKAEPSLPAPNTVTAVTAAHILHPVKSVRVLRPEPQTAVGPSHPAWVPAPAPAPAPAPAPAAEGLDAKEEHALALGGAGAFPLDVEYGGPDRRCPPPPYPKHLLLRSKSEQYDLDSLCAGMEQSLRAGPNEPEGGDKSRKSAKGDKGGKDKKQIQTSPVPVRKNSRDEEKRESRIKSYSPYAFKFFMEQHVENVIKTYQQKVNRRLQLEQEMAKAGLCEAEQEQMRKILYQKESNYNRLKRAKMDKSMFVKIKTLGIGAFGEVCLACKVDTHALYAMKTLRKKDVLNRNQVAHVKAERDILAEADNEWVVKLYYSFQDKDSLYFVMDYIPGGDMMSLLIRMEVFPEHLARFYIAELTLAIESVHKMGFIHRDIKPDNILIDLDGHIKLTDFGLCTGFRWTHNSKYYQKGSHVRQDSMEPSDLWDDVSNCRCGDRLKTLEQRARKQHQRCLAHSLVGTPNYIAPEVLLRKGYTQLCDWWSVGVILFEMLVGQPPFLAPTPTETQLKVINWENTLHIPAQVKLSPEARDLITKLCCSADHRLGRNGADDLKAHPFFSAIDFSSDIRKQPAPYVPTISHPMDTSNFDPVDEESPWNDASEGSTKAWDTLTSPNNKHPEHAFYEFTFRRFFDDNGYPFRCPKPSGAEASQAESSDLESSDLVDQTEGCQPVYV

Turning to `CN(C(=O)CN1CCOCC1)c1ccc2sc3c(-c4cccc5c(=O)cc(N6CC7CCC(C6)O7)oc45)cccc3c2c1` [NU5455], the “% displacement” value is 4.7%.
